# Measured values reported in patent US7824672B2, “Method for coating living cells” (Emory University, priority 2004, dated 2010).
# Residues, ends and D or L forms follow the SMILES beside them. *: point of attachment. Cbz = O=C(OCc1ccccc1)*; CH2F = FC*
# B1: Free CD39: detergent-solubilized human CD39 expressed in Pichia pastoris, FLAG tagged (protein, UniProt P49961 1-510, looked up)
# Ectonucleoside triphosphate …: MEDTKESNVKTFCSKNILAILGFSSIIAVIALLAVGLTQNKALPENVKYGIVLDAGSSHTSLYIYKWPAEKENDTGVVHQVEECRVKGPGISKFVQKVNEIGIYLTDCMERAREVIPRSQHQETPVYLGATAGMRLLRMESEELADRVLDVVERSLSNYPFDFQGARIITGQEEGAYGWITINYLLGKFSQKTRWFSIVPYETNNQETFGALDLGGASTQVTFVPQNQTIESPDNALQFRLYGKDYNVYTHSFLCYGKDQALWQKLAKDIQVASNEILRDPCFHPGYKKVVNVSDLYKTPCTKRFEMTLPFQQFEIQGIGNYQQCHQSILELFNTSYCPYSQCAFNGIFLPPLQGDFGAFSAFYFVMKFLNLTSEKVSQEKVTEMMKKFCAQPWEEIKTSYAGVKEKYLSEYCFSGTYILSLLLQGYHFTADSWEHIHFIGKIQGSDAGWTLGYMLNLTNMIPAEQPLSTPLSHSTYVFLMVLFSLVLFTVAIIGLLIFHKPSYFWKDMV
# modifications: FLAG tag
# notes: detergent-solubilized human CD39 expressed in Pichia pastoris, FLAG tagged
# Tests used:
# [1] = test system: rat islets; assay: Viability of encapsulated rat islets after overnight culture; assay type: cell-based; details: nicotinamide 10 mM, Z-VAD.fmk 40 μM
# Description: Transplantation of islets microencapsulated within a membrane-mimetic barrier. Evaluation of cell viability. Initial experiments used CHO cells as a readily available model system to assess cell viability after encapsulation. Cells were suspended into alginate solution at 6×10^6 cells/mL and then coated with a photopolymerized membrane-mimetic lipid film. Cell viability of >95% at 24 and 48 hours was confirmed using a Live/Dead cell assay (Molecular Probes, Inc.). In the next phase of this effort, we determined the viability of encapsulated rat islets (103). Rat islets were isolated from outbred male Wistar rats and suspended at a concentration of 1000 islets in 0.25 mL of 2% alginate (UP LVM, Pronova Biomedical, Norway). Alginate encapsulated islets were coated with a membrane-mimetic film and after overnight culture viability was graded with respect to the proportion of viable cells within a given islet.
# [2] = biotin binding sites; cited from earlier work
# [3] = systemic; cited from earlier work
# [4] = test system: Factor V; details: cited from earlier work
# [5] = test system: islet-induced coagulation; details: ex vivo model; cited from earlier work
# [6] = CD39 ADPase activity kinetics (inorganic phosphate release); assay type: biochemical; details: substrate ADP 50-1500 μM; vesicles: molar ratio CD39:POPC 1:33,613
# Description: (§1) We have expressed and purified human CD39 from Pichia pastoris and confirmed both ecto-ATPase and ecto-ADPase activity. […] Briefly, the plasmid carrying the CD39 human coding sequence was provided by Dr. Simon C. Robson (Harvard Medical School, USA). Polymerase chain reaction (PCR) was utilized to add a Kozak sequence flanked by EcoRI to the […] of CD39 and a FLAG tag flanked by XbaI to the 3′ end of CD39. The construct was harbored in pCR 2.1-TOPO (Invitrogen, San Diego, Calif.) and multiplied in One Shot Top10 (Invitrogen). To express CD39 in yeast, the EcoRI/XbaI digestion product was cloned into pPICZ (Invitrogen) and transformed into Pichia pastoris strain SMD1168 (Invitrogen). The expression construct was confirmed through DNA sequencing analysis. P. pastoris cultures were grown at 30° C. and expression induced for 4 days with 0.5% methanol. Cells were harvested, resuspended in breaking buffer, and cell lysates centrifuged to separate membrane and soluble fractions. […] CD39 was extracted from membrane fractions using 1% Igepal CA-630 and purified on anti-FLAG M2 affinity columns (Sigma, Saint Louis, Mo.). Kinetic parameters were measured for both detergent-solubilized CD39 and for protein reconstituted in POPC lipid vesicles at varying molar ratios of CD39 to lipid (1:85,714, 1:33,613, 1:16,806). […] Inorganic phosphate was measured as described by Ames (116). […]
# [7] = CD39 ATPase activity kinetics (inorganic phosphate release); assay type: biochemical; details: substrate ATP 50-1500 μM; vesicles: molar ratio CD39:POPC 1:33,613
# Description: as §1
molecule,measurement,setting,value
COC(=O)C[C@H](NC(=O)[C@H](C)NC(=O)[C@@H](NC(=O)OCc1ccccc1)C(C)C)C(=O)CF [Z-VAD.fmk] (Cbz-Val-Ala-Asp(OMe)-CH2F),effect of anti-apoptotic agent on islet viability,[1],important adjuncts for maximizing islet viability
NC(=O)c1cccnc1 [nicotinamide],effect of anti-apoptotic agent on islet viability,[1],important adjuncts for maximizing islet viability
avidin: biotin binding protein with four biotin binding sites,binding affinity (log),[2],> 15
heparin,half-life,[3],one hour
same,enhancement of APC's ability to inactivate Factor V,[4],four-fold
same,concentration that prevented islet-induced coagulation,[5],4 U/mL blood
B1,Km,[6],45.8 µM
same,Km,[7],58.5 µM
